Measurements as given in ChEMBL document CHEMBL1145021, “First X-ray cocrystal structure of a bacterial FabH condensing enzyme and a small molecule inhibitor achieved using rational design and homology modeling” (J Med Chem, 2003).
Values belong to the molecule of their own block, whether it stands above or below them.

Experiments:
[1] = Inhibitory activity against Streptococcus pneumoniae Beta-ketoacyl-ACP synthase III (FabH) (initiator of the fatty acid synthesis)
[2] = Inhibitory activity against Escherichia coli Beta-ketoacyl-ACP synthase III (FabH) (initiator of the fatty acid synthesis)
[3] = Inhibitory activity against Streptococcus pneumoniae FabH (initiator of the fatty acid synthesis)
[4] = Inhibitory activity against Escherichia coli FabH (initiator of the fatty acid synthesis)
[5] = Inhibitory activity against Streptococcus pneumoniae Beta-ketoacyl-ACP synthase III (initiator of the fatty acid synthesis)
[6] = Inhibitory activity against Escherichia coli Beta-ketoacyl-ACP synthase III (initiator of the fatty acid synthesis)

SMILES: O=C(O)c1cc2cc(OCc3c(Cl)cccc3Cl)ccc2n1Cc1cc2c(cc1Cl)OCO2
- IC50 [3]: 0.04 µM
- IC50 [4]: 0.83 µM

SMILES: O=C(O)c1ccc(Cn2c(C(=O)O)cc3cc(OCc4c(Cl)cccc4Cl)ccc32)cc1
- IC50 [5]: 0.2 µM
- IC50 [6]: 2.5 µM

SMILES: O=C(O)Cn1c(C(=O)O)cc2cc(OCc3c(Cl)cccc3Cl)ccc21
- IC50 [1]: 1.2 µM
- IC50 [2]: 78 µM

SMILES: O=C(O)c1cc2cc(OCc3c(Cl)cccc3Cl)ccc2n1Cc1ccc(O)cc1
- IC50 [3]: 0.053 µM
- IC50 [4]: 2 µM

SMILES: O=C(CCCCCn1c(C(=O)O)cc2cc(OCc3c(Cl)cccc3Cl)ccc21)NS(=O)(=O)c1ccccc1
- IC50 [1]: 0.046 µM
- IC50 [2]: 4.6 µM

Further lines, results first:

- IC50 [1]: 0.062 µM
- IC50 [2]: 1.7 µM
SMILES: O=C(O)CCCn1c(C(=O)O)cc2cc(OCc3c(Cl)cccc3Cl)ccc21

- IC50 [1]: 0.17 µM
- IC50 [2]: 2 µM
SMILES: O=C(O)CCCCCCn1c(C(=O)O)cc2cc(OCc3c(Cl)cccc3Cl)ccc21

- IC50 [1]: 0.14 µM
SMILES: O=C(O)CCCCCn1c(C(=O)O)cc2cc(OCc3c(Cl)cccc3Cl)ccc21
